Results as given in patent US20220380370A1 (Goldfinch Bio, Inc., priority 2019, published 2022).

biological target: T1, CB1 receptor (Homo sapiens, UniProt P21554); assay: CB1 cAMP antagonist assay (LANCE Ultra cAMP kit); assay type: cell-based; conditions: CHO cells stably expressing the CB1 receptor; forskolin and agonist CP55940 at EC90
T1 construct: Perkin Elmer (CB1-CHO cells); host or cells: Flp-In CHO cells or CB1-CHO cells, stably expressing
From the text: LANCE Ultra cAMP kit (Perkin Elmer) was used to quantitate the amount of 3′,5′-cyclic adenosine monophosphate (cAMP) produced in Flp-In CHO cells (Invitrogen) stably expressing the CB1 receptor, CB1-CHO cells (Perkin Elmer) stably expressing the CB1 receptor, or CB2-CHO cells (Perkin Elmer) stably expressing the CB2 receptor.
Forskolin was initially titrated to determine the response of the cells. The EC90 of forskolin was used for compound testing. CP55940 was titrated and used with EC90 of forskolin to determine the level of agonist stimulation. EC90 of the agonist was used for subsequent compound testing. For the CB1 assay, Forskolin (Sigma), CP55940 (Cayman Chemicals), and AM251 (MCE) were diluted in 100% DMSO, starting at 100 mM, 1 mM, and 1 mM respectively, in 3-fold serial dilutions. For the CB2 assay, Forskolin (Sigma), CP55940 (Cayman Chemicals), and AM630 (MCE) were diluted in 100% DMSO, starting at 100 mM, 1 mM, and 30 mM respectively, in 3-fold serial dilutions. Test compounds were diluted in 100% DMSO starting from 10 mM, 3-fold dilutions. The cAMP assay buffer contains 1× Hank's Buffered Saline Solution with Ca^2+ and Mg^2+ (Invitrogen), 5.3 mM HEPES (Invitrogen), 0.05% BSA, 0.5 mM IBMX (Sigma). For all assays, cells were harvested, counted, and diluted in cAMP assay buffer to 1×10^5 cells/mL. Only cells with viability >85% were used for the assay. Cells were seeded at 1000 cells/well in 384-well plates and 10 nL/well AM251 (for CB1), AM630 (for CB2) or test compound was added and incubated at 37° C. for 10 min. Then forskolin and agonist were added to reach their EC90 and incubated at 25° C. for 30 min. To detect the amount of cAMP produced, 5 μL of a 100× diluted stock of Eu-cAMP tracer and 5 μL of 200× diluted stock of Ulight-anti-cAMP were added to each well, and the plate incubated at 25° C. for 15 min. The FRET signal was read using an EnVision microplate reader (λex=320 nm, λem=615 nm and 665 nm). The results are expressed as % Inhibition, where % inhibition=100−100×(U−C2)/(C1−C2), where U is the FRET ratio (λem (665 nm)/λem (615 nm)) of sample, C1 is the average of the high controls (signal with no antagonist added), and C2 is the average of low controls (signal with the highest concentration of AM251 or AM630 antagonist). The IC50 is determined by fitting the percentage of inhibition as a function of compound concentrations with the Hill equation, using a 4-parameter fit in either XLfit or GraphPad Prism.

T1 sequence (P21554 whole entry): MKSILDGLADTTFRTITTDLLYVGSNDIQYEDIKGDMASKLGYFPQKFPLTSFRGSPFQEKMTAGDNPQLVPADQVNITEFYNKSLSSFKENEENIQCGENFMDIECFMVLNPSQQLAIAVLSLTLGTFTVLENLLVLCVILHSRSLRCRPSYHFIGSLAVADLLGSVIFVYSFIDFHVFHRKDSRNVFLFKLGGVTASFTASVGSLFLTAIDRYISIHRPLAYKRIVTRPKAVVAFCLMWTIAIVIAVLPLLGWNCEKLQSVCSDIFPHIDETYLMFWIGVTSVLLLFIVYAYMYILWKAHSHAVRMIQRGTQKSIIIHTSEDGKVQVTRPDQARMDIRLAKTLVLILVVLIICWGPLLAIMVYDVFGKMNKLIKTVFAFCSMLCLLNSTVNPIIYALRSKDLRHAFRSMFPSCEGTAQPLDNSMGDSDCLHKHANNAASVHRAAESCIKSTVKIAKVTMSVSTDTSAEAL

First: CC(=O)N1CCC(Cn2c(=O)n(C[C@@H](O)CO)c(=O)c3c2nc(-c2ccccc2Cl)n3-c2ccc(Cl)cc2)CC1 [Compound 130, (R)-3-[(1-acetylpiperidin-4-yl)methyl]-8-(2-chlorophenyl)-7-(4-chlorophenyl)-1-[2,3-dihydroxypropyl]purine-2,6-dione]
Second: CS(=O)(=O)N1CCC(Cn2c(=O)n(CC(N)=O)c(=O)c3c2nc(-c2ccccc2Cl)n3-c2ccc(Cl)cc2)CC1 [Compound 158]
The IC50 of the first is higher: 0.1 to 1 µM for the first, under 0.1 µM for the second.

First: NC(=O)Cn1c(=O)c2c(nc(-c3ccccc3Cl)n2-c2ccc(Cl)cc2)n(C2CCOCC2)c1=O [Compound 133]
Second: C[C@H](C(N)=O)n1c(=O)c2c(nc(-c3ccccc3Cl)n2-c2ccc(Cl)cc2)n(C2CCOCC2)c1=O [Compound 137]
The IC50 of the first is lower: under 0.1 µM for the first, 0.1 to 1 µM for the second.

`C[C@@H](C(N)=O)n1c(=O)c2c(nc(-c3ccccc3Cl)n2-c2ccc(Cl)cc2)n(CC2CCOCC2)c1=O` [Compound 139] and `C[C@@H](Cn1c(=O)c2c(nc(-c3ccccc3Cl)n2-c2ccc(Cl)cc2)n(CC2CCS(=O)(=O)CC2)c1=O)C(N)=O` [Compound 174, (2S)-3-[8-(2-chlorophenyl)-7-(4-chlorophenyl)-3-[(1,1-dioxo-1λ^6-thian-4-yl)methyl]-2,6-dioxopurin-1-yl]-2-methylpropanamide] cannot be ordered by IC50: under 0.1 µM for the first, under 0.1 µM for the second.

`NC(=O)Cn1c(=O)c2c(nc(-c3ccccc3Cl)n2-c2ccc(Cl)cc2)n(Cc2ccc([C@H]3COCCO3)cc2)c1=O` [Compound 141, 2-[8-(2-chlorophenyl)-7-(4-chlorophenyl)-3-([4-[(2S)-1,4-dioxan-2-yl]phenyl]methyl)-2,6-dioxopurin-1-yl]acetamide] and `NC(=O)Cn1c(=O)c2c(nc(-c3ccccc3Cl)n2-c2ccc(Cl)cc2)n(Cc2ccc([C@@H]3COCCO3)cc2)c1=O` [Compound 145, 2-[8-(2-chlorophenyl)-7-(4-chlorophenyl)-3-([4-[(2R)-1,4-dioxan-2-yl]phenyl]methyl)-2,6-dioxopurin-1-yl]acetamide] cannot be ordered by IC50: under 0.1 µM for the first, under 0.1 µM for the second.

`NC(=O)Cn1c(=O)c2c(nc(-c3ccccc3Cl)n2-c2ccc(Cl)cc2)n(Cc2ccc(CC3COCCO3)cc2)c1=O` (stereo not drawn) [Compound 143] and `NC(=O)Cn1c(=O)c2c(nc(-c3ccccc3Cl)n2-c2ccc(Cl)cc2)n(Cc2ccc(S(N)(=O)=O)cc2)c1=O` [Compound 153] cannot be ordered by IC50: under 0.1 µM for the first, under 0.1 µM for the second.

First: Cn1c(=O)[nH]c2nc(-c3ccccc3Cl)n(-c3ccc(Cl)cc3)c2c1=O [Compound 147, 8-(2-chlorophenyl)-7-(4-chlorophenyl)-1-methyl-3H-purine-2,6-dione]
Second: C[C@@H](c1ccc(S(N)(=O)=O)cn1)n1c(=O)n(C)c(=O)c2c1nc(-c1ccccc1Cl)n2-c1ccc(Cl)cc1 [Compound 179, 6-[(1S)-1-[8-(2-chlorophenyl)-7-(4-chlorophenyl)-1-methyl-2,6-dioxopurin-3-yl]ethyl]pyridine-3-sulfonamide]
The IC50 of the first is higher: 1 to 5 µM for the first, under 0.1 µM for the second.

`Cn1c(=O)c2c(nc(-c3ccccc3Cl)n2-c2ccc(Cl)nc2)n(C2CCCCC2)c1=O` [Compound 149, 8-(2-chlorophenyl)-7-(6-chloropyridin-3-yl)-3-cyclohexyl-1-methylpurine-2,6-dione] and `Cn1c(=O)c2c(nc(-c3cccnc3Cl)n2-c2ccc(Cl)cc2)n(C2CCCCC2)c1=O` [Compound 152, 7-(4-chlorophenyl)-8-(2-chloropyridin-3-yl)-3-cyclohexyl-1-methylpurine-2,6-dione] cannot be ordered by IC50: under 0.1 µM for the first, under 0.1 µM for the second.

Compared with `C[C@@H](c1ccc(C(N)=O)cc1)n1c(=O)n(C[C@@H](O)CO)c(=O)c2c1nc(-c1ccccc1Cl)n2-c1ccc(Cl)cc1` [Compound 151], `C[C@@H](CO)NC(=O)c1ccc(Cn2c(=O)n(C)c(=O)c3c2nc(-c2ccccc2Cl)n3-c2ccc(Cl)cc2)nc1` [Compound 160] is lower in IC50: 0.1 to 1 µM for the first, under 0.1 µM for the second. The second is the more potent here.

`CS(=O)(=O)c1ccc(Cn2c(=O)n(CC(N)=O)c(=O)c3c2nc(-c2ccccc2Cl)n3-c2ccc(Cl)cc2)nc1` [Compound 154] and `CS(=O)(=O)c1ccc(Cn2c(=O)n(CC(N)=O)c(=O)c3c2nc(-c2ccccc2Cl)n3-c2ccc(Cl)cc2)cc1` [Compound 155, 2-[8-(2-chlorophenyl)-7-(4-chlorophenyl)-3-[(4-methanesulfonylphenyl)methyl]-2,6-dioxopurin-1-yl]acetamide] cannot be ordered by IC50: under 0.1 µM for the first, under 0.1 µM for the second.

`CS(=N)(=O)c1ccc(Cn2c(=O)n(CC(N)=O)c(=O)c3c2nc(-c2ccccc2Cl)n3-c2ccc(Cl)cc2)cc1` (stereo not drawn) [Compound 156, 2-[8-(2-chlorophenyl)-7-(4-chlorophenyl)-3-([4-[imino(methyl)oxo-lambda6-sulfanyl]phenyl]methyl)-2,6-dioxopurin-1-yl]acetamide] and `NS(=O)(=O)Cn1c(=O)c2c(nc(-c3ccccc3Cl)n2-c2ccc(Cl)cc2)n(Cc2ccc(Cl)cn2)c1=O` [Compound 169, [8-(2-chlorophenyl)-7-(4-chlorophenyl)-3-[(5-chloropyridin-2-yl)methyl]-2,6-dioxopurin-1-yl]methanesulfonamide] cannot be ordered by IC50: under 0.1 µM for the first, under 0.1 µM for the second.

`NC(=O)Cn1c(=O)c2c(nc(-c3ccccc3Cl)n2-c2ccc(Cl)cc2)n(CC2(F)CCOCC2)c1=O` [Compound 157] and `NC(=O)Cn1c(=O)c2c(nc(-c3ccccc3Cl)n2-c2ccc(Cl)cc2)n(CC2(O)CCOCC2)c1=O` [Compound 168, 2-[8-(2-chlorophenyl)-7-(4-chlorophenyl)-3-[(4-hydroxyoxan-4-yl)methyl]-2,6-dioxopurin-1-yl]acetamide] cannot be ordered by IC50: under 0.1 µM for the first, under 0.1 µM for the second.

`C[C@H](CO)NC(=O)c1ccc(Cn2c(=O)n(C)c(=O)c3c2nc(-c2ccccc2Cl)n3-c2ccc(Cl)cc2)nc1` [Compound 161] and `Cn1c(=O)c2c(nc(-c3ccccc3Cl)n2-c2ccc(Cl)cc2)n(Cc2ccc(C(=O)NCC(C)(C)O)cn2)c1=O` [Compound 166] cannot be ordered by IC50: under 0.1 µM for the first, under 0.1 µM for the second.

`Cn1c(=O)c2c(nc(-c3ccccc3Cl)n2-c2ccc(Cl)cc2)n(Cc2ccc(C(=O)NCC3(O)CC3)cn2)c1=O` [Compound 162] and `Cn1c(=O)c2c(nc(-c3ccccc3Cl)n2-c2ccc(Cl)cc2)n(Cc2ccc(C(=O)NC3CCOC3)cn2)c1=O` (stereo not drawn) [Compound 167] cannot be ordered by IC50: under 0.1 µM for the first, under 0.1 µM for the second.

First: NC(=O)Cn1c(=O)c2c(nc(-c3ncccc3Cl)n2-c2ccc(Cl)cc2)n(CC2CCS(=O)(=O)CC2)c1=O [Compound 163, 2-[7-(4-chlorophenyl)-8-(3-chloropyridin-2-yl)-3-[(1,1-dioxo-1λ^6-thian-4-yl)methyl]-2,6-dioxopurin-1-yl]acetamide]
Second: NC(=O)Cn1c(=O)c2c(nc(-c3ccc(F)cc3Cl)n2-c2ccc(Cl)cc2)n(CC2CCS(=O)(=O)CC2)c1=O [Compound 173]
The IC50 of the first is higher: 1 to 5 µM for the first, under 0.1 µM for the second. The second is the more potent here.

Compared with `NC(=O)Cn1c(=O)c2c(nc(-c3ccc(F)cc3F)n2-c2ccc(Cl)cc2)n(CC2CCS(=O)(=O)CC2)c1=O` [Compound 172, 2-[7-(4-chlorophenyl)-8-(2,4-difluorophenyl)-3-[(1,1-dioxo-1λ^6-thian-4-yl)methyl]-2,6-dioxopurin-1-yl]acetamide], `C[C@H](Cn1c(=O)c2c(nc(-c3ccccc3Cl)n2-c2ccc(Cl)cc2)n(CC2CCS(=O)(=O)CC2)c1=O)C(N)=O` [Compound 175] is lower in IC50: 0.1 to 1 µM for the first, under 0.1 µM for the second. The second is the more potent here.

First: C[C@H](c1ccc(S(N)(=O)=O)cn1)n1c(=O)n(C)c(=O)c2c1nc(-c1ccccc1Cl)n2-c1ccc(Cl)cc1 [Compound 180, 6-[(1R)-1-[8-(2-chlorophenyl)-7-(4-chlorophenyl)-1-methyl-2,6-dioxopurin-3-yl]ethyl]pyridine-3-sulfonamide]
Second: Cn1nccc1-c1nc2c(c(=O)n(C)c(=O)n2Cc2ccc(S(N)(=O)=O)cn2)n1-c1ccc(Cl)cc1 [Compound 182, 6-[[7-(4-chlorophenyl)-1-methyl-8-(2-methylpyrazol-3-yl)-2,6-dioxopurin-3-yl]methyl]pyridine-3-sulfonamide]
The IC50 of the first is lower: under 0.1 µM for the first, 0.1 to 1 µM for the second. The first is the more potent here.

Compound `Cn1nccc1-c1nc2c(c(=O)n(C)c(=O)n2Cc2ccc(S(N)(=O)=O)cc2)n1-c1ccc(Cl)cc1` [Compound 181] has an IC50 of under 0.1 µM.
